# Literature values in US20010036664A1, “L-leucyl-L-leucine methyl ester treatment of donor lypmhocyte infusions in bone marrow transplant patients” (priority 2000, published 2001).
# What was measured:
# [1] = test system: GVHD; conditions: ex vivo treatment of bone marrow grafts; multiple murine models
# [2] = test system: GVHD-inducing T cells; conditions: stem cell toxicity occurs at this concentration
smiles,measurement,setting,value
"COC(=O)[C@H](CC(C)C)NC(=O)[C@@H](N)CC(C)C [LLME, L-leucyl-L-leucine methyl ester]",prevention of GVHD,[1],completely prevent GVHD
same,concentrations necessary to purge GVHD-inducing T cells,[2],500 µM
